According to ChEMBL document CHEMBL1143883, “Fluoroolefins as amide bond mimics in dipeptidyl peptidase IV inhibitors” (Bioorg Med Chem Lett, 2008):

Experiments:
[1] = Plasma clearance in rat at 1 mg/kg, iv or 2 mg/kg, po; type: ADME, organism-based
[2] = Mean residence time in rat at 1 mg/kg, iv or 2 mg/kg, po; type: ADME, organism-based; details: in vivo
[3] = Oral bioavailability in rat at 2 mg/kg; type: ADME, organism-based; details: in vivo
[4] = Metabolic stability in rat hepatocytes after 60 mins; type: ADME, cell-based, Hepatocyte; details: read-out: Stability
Liver microsomes [5] = test: Metabolic stability in rat liver microsome assessed as covalent binding per mg of protein; type: ADME
Liver microsomes [6] = test: Metabolic stability in human liver microsome assessed as covalent binding per mg of protein; type: ADME
[7] = Half life in rat at 1 mg/kg, iv or 2 mg/kg, po; type: ADME, organism-based; details: in vivo
[8] = Metabolic stability in rat liver microsomes after 60 mins in presence of NADPH; type: ADME, Microsome; details: read-out: Stability
[9] = molecular target: Voltage-gated inwardly rectifying potassium channel KCNH2 (Homo sapiens, UniProt Q12809)
Chain of Voltage-gated inwardly rectifying potassium channel KCNH2 (Q12809 whole entry): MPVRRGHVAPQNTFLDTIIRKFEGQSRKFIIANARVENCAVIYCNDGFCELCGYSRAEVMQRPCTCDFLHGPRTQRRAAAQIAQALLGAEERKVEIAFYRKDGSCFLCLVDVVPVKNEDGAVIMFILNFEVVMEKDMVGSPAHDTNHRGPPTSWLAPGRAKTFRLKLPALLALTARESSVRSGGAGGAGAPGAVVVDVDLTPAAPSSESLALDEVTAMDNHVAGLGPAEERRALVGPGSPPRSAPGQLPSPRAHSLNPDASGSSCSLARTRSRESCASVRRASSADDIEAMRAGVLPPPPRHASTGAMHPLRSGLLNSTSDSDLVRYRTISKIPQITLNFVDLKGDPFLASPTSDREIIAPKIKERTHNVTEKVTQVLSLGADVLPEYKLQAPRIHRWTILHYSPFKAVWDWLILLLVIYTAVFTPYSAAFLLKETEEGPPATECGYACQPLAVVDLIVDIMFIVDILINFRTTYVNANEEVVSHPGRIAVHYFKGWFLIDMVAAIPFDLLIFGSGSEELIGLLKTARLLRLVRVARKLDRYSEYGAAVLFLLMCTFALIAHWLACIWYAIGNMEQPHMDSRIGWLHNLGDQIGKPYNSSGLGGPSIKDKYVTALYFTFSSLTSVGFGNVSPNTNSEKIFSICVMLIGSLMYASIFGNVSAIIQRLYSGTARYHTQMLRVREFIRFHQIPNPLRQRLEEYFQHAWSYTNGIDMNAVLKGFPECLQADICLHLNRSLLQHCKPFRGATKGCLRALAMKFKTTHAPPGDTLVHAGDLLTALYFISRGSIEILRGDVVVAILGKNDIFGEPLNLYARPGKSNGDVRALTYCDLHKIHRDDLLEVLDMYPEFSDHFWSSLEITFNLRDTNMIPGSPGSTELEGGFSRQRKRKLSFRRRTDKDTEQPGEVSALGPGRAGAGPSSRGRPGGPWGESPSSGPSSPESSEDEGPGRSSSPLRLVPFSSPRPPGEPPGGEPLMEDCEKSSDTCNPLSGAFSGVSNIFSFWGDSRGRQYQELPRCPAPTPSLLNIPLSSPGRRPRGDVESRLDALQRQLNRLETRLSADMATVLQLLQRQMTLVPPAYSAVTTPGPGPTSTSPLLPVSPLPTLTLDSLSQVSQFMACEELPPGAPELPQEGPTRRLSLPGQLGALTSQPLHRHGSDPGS

clearance [1]	MRT [2]	bioavailability [3]	remaining at 1 h [4]	Stability (Liver microsomes [5])	Stability (Liver microsomes [6])	half-life [7]	remaining at 1 h [8]	Structure (SMILES)	IC50 [9]
20 mL/min/kg	2 h	62%	3%	–	–	–	–	CC(c1nc(-c2ccc(S(C)(=O)=O)cc2Cl)no1)[C@H](N)C(F)=C1CCCC1.O=C(O)C(F)(F)F (stereo partly drawn)	–
–	–	–	–	662 pmol/mg	287 pmol/mg	–	–	C[C@H](c1nc(-c2ccc(S(=O)(=O)C[14CH3])cc2Cl)no1)[C@H](N)C(F)=C1CCCC1.O=C(O)C(F)(F)F	–
54 mL/min/kg	–	1%	–	–	–	1.5 h	–	CS(=O)(=O)c1ccc(-c2noc([C@@H](CC3CC3)[C@H](N)C(F)=C3CCCC3)n2)c(Cl)c1.O=C(O)C(F)(F)F	–
6 mL/min/kg	–	27%	88%	–	–	0.86 h	56%	C[C@H](c1nc(-c2ccc(S(C)(=O)=O)cc2Cl)no1)[C@H](N)C(=O)N1CCCC1.O=C(O)C(F)(F)F	–
51 mL/min/kg	–	4%	–	–	–	1.6 h	–	CS(=O)(=O)c1ccc(-c2noc([C@@H](CCO)[C@H](N)C(F)=C3CCCC3)n2)c(Cl)c1.O=C(O)C(F)(F)F	47 µM
